We go through 5 molecules from PMC11470957, “Principles of paralog-specific targeted protein degradation engaging the C-degron E3 KLHDC2” (Nature Communications, 2024).

In experiment [1] the target is T1, KLHDC2^SBD (Homo sapiens, UniProt Q9Y2U9).
T1 sequence (Q9Y2U9 15-361): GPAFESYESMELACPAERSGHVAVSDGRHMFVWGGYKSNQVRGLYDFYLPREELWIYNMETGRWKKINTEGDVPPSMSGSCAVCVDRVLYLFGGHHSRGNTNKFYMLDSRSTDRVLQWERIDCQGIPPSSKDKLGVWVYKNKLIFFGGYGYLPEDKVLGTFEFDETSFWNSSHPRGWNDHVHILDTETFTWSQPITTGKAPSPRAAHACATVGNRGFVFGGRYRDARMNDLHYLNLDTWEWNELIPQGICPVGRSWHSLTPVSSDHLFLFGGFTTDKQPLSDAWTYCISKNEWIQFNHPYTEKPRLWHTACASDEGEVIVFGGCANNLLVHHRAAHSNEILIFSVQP
Kind of experiment: Thermal shift assay (Sypro Orange) probing stabilization of KLHDC2^SBD. Also noted: KLHDC2^SBD (15-361) and its Avi-tagged counterpart were expressed in E. coli Rosetta2 cells; 6XHis-MBP (N, cleaved yes); made in house; host or cells: E. coli Rosetta2. The format is binding. The note with it: for ΔTm at 50 µM: read-out: ΔTm at 50 µM; for Thermal shift ΔTm: KLHDC2^SBD, ligand concentration not given. Here is the method: In an attempt to identify non-peptide ligands that target KLHDC2’s substrate binding domain (SBD), we developed a thermal shift assay probing for stabilization of KLHDC2^SBD upon ligand addition. […] We utilized the thermal shift assay to screen ~ 9,000 molecules from a diverse collection of lead-like molecules (Figs. 1b, S1a, Supplementary Table 1).
Experimental compounds (200 nl each) were dispensed into a 384-well PCR plate using the Labcyte ECHO 655 T. The assay solution, comprising 0.5 μM KLHDC2, 25 mM HEPES, 200 mM NaCl, and 5% Sypro Orange at pH 7.5, was added to achieve a final volume of 20 μl. Negative control wells contained only DMSO, while positive control wells contained a di-Gly substrate peptide derived from SELK. Fluorescence measurements of Sypro Orange in each sample were taken using a Quantstudio 5 or Quantstudio 6, with temperatures ranging from 23 to 75 °C at a rate of 0.05 °C/s. Data analysis involved calculating thermal stability using the Boltzmann and first derivative minima equations in Thermo Scientific Protein Thermal Shift software v1.4. The resulting data were uploaded to CDD Vault for further analysis.
The 8892-compound lead-like one library was screened for its ability to stabilize KLHDC2 using a sypro orange-based thermal stability single-point assay.
Supplementary Ta b l e 1. Small molecule screening data
Category Parameter Description
Assay Ty p e o f assay Thermal Stability Screen
Primary measurement RFU of Sypro Orange
Key reagents Sypro Orange
Assay protocol Experimental compounds (200nl each) were dispensed into […]
a 384-well PCR plate using the Labcyte ECHO 655T. The […]
assay solution, comprising 0.5µM KLHDC2, 25mM HEPES,
200mM NaCl, and 5% Sypro Orange at pH 7.5, was added […]
to achieve a final volume of 20μl. Negative control wells […]
contained only DMSO, while positive control wells […]
contained peptide sub2. Fluorescence measurements of
Sypro Orange in each sample were taken using a
Quantstudio 5 or Quantstudio 6, with temperatures ranging […]
from 23 to 75°C at a rate of 0.05°C/second. Data analysis […]
involved calculating thermal stability using the Boltzmann […]
and first derivative minima equations in Thermo Scientific
Protein Thermal Shift software v1.4. The resulting data […]
were uploaded to CDD Vault for further analysis.
Library Library size 10041
Library composition The library was curated from compounds cherry picked […]
from St. Jude’s collection, representative of 80% of the […]
entire collection based on scaffold diversity (2D Molecular […]
fingerprinting based clustering) and structural properties: […]
lipophilicity (cLogP<3), size (MW 200-300 Da), and no […]
structural alerts (PAINS).
Source The compound collection was curated from multiple […]
vendors and stored on-site.
Screen Format The assay was completed in 26 384 well plates
Concentration(s) tested Compounds were tested at 100µM, and then a 16-point […]
serial dilution was performed on select compounds.
Plate controls DMSO as negative control and peptide sub2 as positive […]
Reagent/ compound dispensing system Multidrop Combi and Labcyte ECHO 655T […]
Detection instrument and software Quant Studio 5 and Quant Studio 6 and Thermo Scientific […]
Protein Thermal Shift software v1.4
Correction factors No correction factors were applied.

Experiment [2] deals with T1, KLHDC2^SBD. As to the kind of experiment: TR-FRET assay, competition with di-Gly degron peptide binding to KLHDC2^SBD. The note with it: for IC50: inhibition of KLHDC2^SBD binding to a di-Gly degron peptide, read-out: TR-FRET IC50. Also noted: KLHDC2^SBD (15-361) and its Avi-tagged counterpart were expressed in E. coli Rosetta2 cells; 6XHis-MBP (N, cleaved yes); made in house; host or cells: E. coli Rosetta2. Here is the method: TR-FRET assays were carried out in black 384-well microtiter plates at a final volume of 20 μL per well. An assay cocktail was prepared as a mixture of 50 nM Biotin-KLHDC2 SBD, 20 nM AlexaFluor488-RIC8B peptide, 2.5 nM Tb-Streptavidin (ThermoFisher) in assay buffer (25 mM HEPES, 100 mM NaCl, 0.1% Triton X-100, 0.5 mM DTT, pH 7.5). The assay cocktail was incubated for thirty-minutes at room temperature and 20 μl distributed to assay plates. Molecules were distributed to the plates at the indicated concentration and the assay mixture was incubated for 1 h at room temperature prior to measuring the TR-FRET signal with a PHERAstar FS plate reader (BMG Labtech) equipped with modules for excitation at 337 nm and emissions at 490 and 520 nm. The integration start was set to 100 µs and the integration time to 200 µs. The number of flashes was fixed at 100. The ratio of 520/490 was used as TR-FRET signal in calculations. Assay endpoints were normalized to 100% (buffer only) and used for curve fitting in Prism.

The target of experiment [3] is T1, KLHDC2^SBD. As to the kind of experiment: ITC, binary binding of small molecule to KLHDC2^SBD.
The mark [4] stands for this setting: ITC Kd, cell: ligand, syringe: KLHDC2^SBD.
[5] abbreviates: Kd, ITC, syringe KLHDC2, cell compound, Rep1, Rep2.
[6] abbreviates: cell: ligand, syringe: KLHDC2^SBD.

“And” between values parts separate entries of the source, which are not always exact repeats. Identical values can stand only once.

With `O=C(O)CNC(=O)Cc1csc(-c2ccccc2F)n1` [SJ6145], the ΔTm at 50 µM at KLHDC2^SBD [1] amounted to 1.1 ± 0.03 °C. The “% Inhibition, normalized TR-FRET dose response” value on KLHDC2^SBD [2] (Log Concentration (uM 2.8348)) is given as 0%; on KLHDC2^SBD [2] (Log Concentration (uM 3.13583)) it was 5.022%; on KLHDC2^SBD [2] (Log Concentration (uM 4.64098)), 41.3917%; at KLHDC2^SBD [2] (Log Concentration (uM 4.94201)), 60.6887%; at KLHDC2^SBD [2] (Log Concentration (uM 5.24304)) it was 71.5686%; on KLHDC2^SBD [2] (Log Concentration (uM 5.54407)), 79.1487%. For the same molecule, the IC50 on KLHDC2^SBD [2] came to 42000 nM.

Take `COCOc1ccc(-c2nc(CC(=O)NCC(=O)O)cs2)c(Cl)c1` [SJ10278]: the ΔTm at 50 µM on KLHDC2^SBD [1] is 3.5 ± 0.3 °C. Besides, the “% Inhibition, normalized TR-FRET dose response” value at KLHDC2^SBD [2] (Log Concentration 2, Rep1) is 8.293%; on KLHDC2^SBD [2] (Log Concentration 2, Rep2) it was 0%; at KLHDC2^SBD [2] (Log Concentration 2, Rep3), 0%; at KLHDC2^SBD [2] (Log Concentration 3.39794, Rep1), 11.5657%; at KLHDC2^SBD [2] (Log Concentration 3.39794, Rep2) it was 0%; on KLHDC2^SBD [2] (Log Concentration 3.39794, Rep3), 5.531%. For the same molecule, the “% Inhibition, normalized TR-FRET dose response” value on KLHDC2^SBD [2] (Log Concentration 3.87506, Rep1) came out at 26.5428%; on KLHDC2^SBD [2] (Log Concentration 3.87506, Rep2), 8.417%; on KLHDC2^SBD [2] (Log Concentration 3.87506, Rep3), 8.069%; on KLHDC2^SBD [2] (Log Concentration 4.35218, Rep1) it was 43.4059%; on KLHDC2^SBD [2] (Log Concentration 4.35218, Rep2), 37.2745%; on KLHDC2^SBD [2] (Log Concentration 4.35218, Rep3), 43.973%. Besides, the “% Inhibition, normalized TR-FRET dose response” value is reported as 67.7021% on KLHDC2^SBD [2] (Log Concentration 4.81291, Rep1); 64.6478% on KLHDC2^SBD [2] (Log Concentration 4.81291, Rep2); 77.6282% at KLHDC2^SBD [2] (Log Concentration 4.81291, Rep3). Moreover, the IC50 on KLHDC2^SBD [2] was 24100 nM.

Turning to `O=C(O)CNC(=O)Cc1csc(-c2ccc3ccccc3c2)n1` [SJ46411], the Kd on KLHDC2^SBD [3] (setting [4]) was ~260 nM and 220 nM; at KLHDC2^SBD [3] (setting [5]), 202 nM and 238 nM. Also, the “ITC -TΔS” value at KLHDC2^SBD [3] (setting [6]) was -1.52 +/- 0.04 kcal/mol-1. Further, the “ITC stoichiometry of binding N” value at KLHDC2^SBD [3] (setting [6]) was 0.9. Besides, the “ITC ΔG” value on KLHDC2^SBD [3] (setting [6]) was -8.81 +/- 0.07 kcal/mol-1. Moreover, the “ITC ΔH” value on KLHDC2^SBD [3] (setting [6]) is -7.30 +/- 0.10 kcal/mol-1. Further, the “Thermal shift ΔTm” value at KLHDC2^SBD [1] turned out to be 6.0 °C. The “% Inhibition, normalized TR-FRET dose response” value is 6.354% and 5.4752% and 4.71% on KLHDC2^SBD [2] (Log Concentration 2.39794, Rep1-Rep3); 7.948% and 6.2789% and 8.198% on KLHDC2^SBD [2] (Log Concentration 2.64098, Rep1-Rep3); 31.9514% and 32.2878% and 31.935% on KLHDC2^SBD [2] (Log Concentration 3.273, Rep1-Rep3); 66.95% and 63.4771% and 63.8138% on KLHDC2^SBD [2] (Log Concentration 3.87506, Rep1-Rep3); 94.0253% and 93.427% and 93.3896% at KLHDC2^SBD [2] (Log Concentration 4.39794, Rep1-Rep3); 96.203% and 95.4411% and 96.0366% at KLHDC2^SBD [2] (Log Concentration 4.69897, Rep1-Rep3). Moreover, the “% Inhibition, normalized TR-FRET dose response” value at KLHDC2^SBD [2] (Log Concentration 4.94201, Rep1-Rep3) is 96.4266% and 96.3416% and 96.2278%. For the same molecule, the IC50 on KLHDC2^SBD [2] turned out to be 3900 nM.

On to `COCCOc1cccc2ccc(-c3nc(CC(=O)NCC(=O)O)cs3)cc12` [SJ46418], for which the Kd was 210 nM on KLHDC2^SBD [3] (ITC Kd, as printed in Fig 2d/3b); 216 ± 17 nM at KLHDC2^SBD [3] (setting [4]); 205 nM and 229 nM at KLHDC2^SBD [3] (setting [5]). Moreover, on KLHDC2^SBD [3] (setting [6]), the “ITC -TΔS” value is given as -0.94 +/- 0.02 kcal/mol-1. For the same molecule, the “ITC stoichiometry of binding N” value at KLHDC2^SBD [3] (setting [6]) amounted to 0.9. Moreover, the “ITC ΔG” value at KLHDC2^SBD [3] (setting [6]) is -8.82 +/- 0.04 kcal/mol-1. Further, the “ITC ΔH” value at KLHDC2^SBD [3] (setting [6]) was -7.88 +/- 0.07 kcal/mol-1. Moreover, the “Thermal shift ΔTm” value at KLHDC2^SBD [1] came to 4.3 °C. For the same molecule, the “% Inhibition, normalized TR-FRET dose response” value was 13.1742% and 22.1732% and 17.7572% on KLHDC2^SBD [2] (Log Concentration 2.39794); 24.253% and 29.1375% and 24.8323% at KLHDC2^SBD [2] (Log Concentration 2.64098); 57.5653% and 59.1955% and 57.0453% on KLHDC2^SBD [2] (Log Concentration 3.273); 85.4899% and 86.6902% and 84.0459% on KLHDC2^SBD [2] (Log Concentration 3.87506); 85.0979% and 85.1063% and 81.8885% at KLHDC2^SBD [2] (Log Concentration 4.39794). At KLHDC2^SBD [2], the IC50 was determined as 1100 nM.

On to `Cc1sc2c(c1C)C(c1ccc(Cl)cc1)=N[C@@H](CC(=O)N1CCN(CCOc3cccc4ccc(-c5nc(CC(=O)NCC(=O)O)cs5)cc34)CC1)c1nnc(C)n1-2` [SJ46421], for which the Kd on KLHDC2^SBD [3] (setting [4]) was found to be 304 ± 39 nM. On KLHDC2^SBD [3] (Kd, Rep1/Rep2, ITC source data Fig4a, syringe KLHDC2, cell PROTAC alone), the Kd was 338 nM and 269 nM. In addition, on KLHDC2^SBD [3] (setting [6]), the “ITC -TΔS” value is reported as -1.03 +/- 0.22 kcal/mol-1, the “ITC stoichiometry of binding N” value was determined as 0.8, the “ITC ΔG” value was -9.1 +/- 0.02 kcal/mol-1 and the “ITC ΔH” value is reported as -8.07 +/- 0.22 kcal/mol-1.
